Laboratory results published in US10053484B2, “Heterocycle-substituted xanthene dyes” (Biotium, Inc., priority 2009, dated 2018).
“Also recorded” adds a separate entry of the source.

Experiments:
[1] = cited from earlier work; for absorption wavelength: commercial cyanine dyes used for the 633 nm laser
[2] = Measurement of absorption and emission spectra of free dyes or dye-protein conjugates; type: physicochemical; settings: for Absorption Wavelengths / Emission Wavelengths: in PBS
Experimental: The absorption spectra of free dyes or dye-antibody conjugates were measured on Beckman Coulter DU800 in pH 7.4 PBS. The concentrations of the dyes or conjugates were adjusted so that the maximal absorbance was around 1.0. The fluorescence emission spectra of the free dyes and conjugates were measured on a Hitachi F4500.

[3] = as above; type: physicochemical; settings: in MeOH
[4] = system: HeLa cells; experiment: Mitochondrial staining of live HeLa cells; type: cell-based; settings: 200 nM compound No. 16 or 10 uM compound No. 74, DMEM, 30 minutes, 37° C. (FIG. 9)
Experimental: HeLa cells were cultured for 2 days at 37° C., 5% CO2. Live cells were stained with 200 nM compound No. 16 or 10 uM compound No. 74 in DMEM media for 30 minutes at 37° C., 5% CO2. Cells were washed in fresh medium and cells were viewed on a mercury arc lamp microscope using a Cy5 filter set. Images were taken using a CCD camera and Image Pro Express software.

[5] = Photostability comparison of dye-antibody conjugates on stained fixed Jurkat cells (microscopy, Cy5 filter set); type: physicochemical; settings: for photostability: goat anti-mouse IgG conjugates on fixed Jurkat cells, continuous illumination, relative fluorescence vs. time (FIG. 5)
Experimental: Jurkat cells were fixed and stained with intracellular mouse anti-human CD3 primary antibody (0.375 ug) followed by 1 ug of goat-anti-mouse IgG conjugated to AlexaFluor633 (DOL 2.3), compound No. 6 (DOL 2.3), DyLight649 (DOL˜6), or Alexa Fluor 647 (DOL˜6). The DOL for each conjugate was the optimal value for each dye. Images were taken on an Olympus mercury arc lamp microscope using a Cy5 filter set. The relative fluorescence vs. time for each sample was plotted (FIG. 5). Traditionally, sulfonated cyanine dyes, such as Alexa Fluor 647 and DyLight 647, have been used for the 633 nm excitation by the HeNe laser with red emission. More recently, rhodamine-based Alexa Fluor 633 dye has become commercially available.

[6] = system: Jurkat cells; experiment: Mitochondrial staining as a function of membrane potential (flow cytometry, with/without CCCP); type: cell-based; settings: 50 nM dye with and without 50 uM CCCP, 30 minutes, FL4 channel (FIG. 10)
Experimental: Live Jurkat cells were stained with 50 nM Compound No. 16 with and without 50 uM carbonyl cyanide m-chlorophenyl hydrozone (CCCP) for 30 minutes prior to analysis by flow cytometry on the FL4 channel of a BD FACS Calibur. Treatment with CCCP disrupts the mitochondrial membrane potential. The graph depicts the relative geometric mean fluorescence of the stained population treated without (Control) or with 50 uM CCCP. […] The membrane potential-dependent mitochondrial staining by compound No. 16 makes the dye useful for assessing the health of cells as only healthy cells have functional mitochondria and have normal membrane potential. For example, cells undergoing apoptosis are known to lose membrane potential.

[7] = known xanthene dyes, background

Molecule	Absorption Wavelengths [2]	Emission Wavelengths [2]	other results
CCN1/C(=C/C=C/C=C/C2=[N+](CCCCCC(=O)O)c3ccc(S(=O)(=O)O)cc3C2(C)C)C(C)(C)c2cc(S(=O)(=O)[O-])ccc21 [Cy5]			absorption wavelength [1]: ~650 nm
CC1N=c2c(cc3c(c2S(=O)(=O)O)Oc2c(cc4c(c2S(=O)(=O)O)NC(C)C4(C)C)C=3c2nccn2CCCCCC(=O)ON2C(=O)CCC2=O)C1(C)C (centres unmarked) [Compound No. 1]	548 nm	571 nm	
N=c1ccc2c(-c3[nH]cnc3C(=O)O)c3ccc(N)cc3oc-2c1 [compound 21]	485 nm	508 nm	
CCN1c2cc3c(cc2C(C)=CC1(C)C)C(c1nccn1Cc1ccc(CCl)cc1)=c1cc2c(cc1O3)=[N+](CC)C(C)(C)C=C2C.[Cl-] [Compound No. 9]	622 nm	648 nm	
CCN1c2cc3c(cc2C(C)=CC1(C)C)C(c1n(C)cc[n+]1C)=c1cc2c(cc1O3)=[N+](CC)C(C)(C)C=C2C [Compound No. 74]			Absorption Wavelengths [3]: 660 nm; Emission Wavelengths [3]: 688 nm; localization of dye in live cells [4]: concentrated in the mitochondria
carboxy-rhodamine 110			absorption maxima [1, 7]: 502 nm; emission maxima [1, 7]: 524 nm
CC1(C)C=C(CS(=O)(=O)O)c2cc3c(cc2=N1)Oc1cc2c(cc1C=3c1nccn1CCCCCC(=O)ON1C(=O)CCC1=O)C(CS(=O)(=O)O)=CC(C)(C)N2 [Compound No. 4]	603 nm	626 nm	
Alexa Fluor 647 [reference compound]			absorption wavelength [1]: ~650 nm; time to being essentially totally bleached ([5]; goat anti-mouse IgG conjugates on fixed Jurkat cells (FIG. 5)): about 1 minute; photostability [5]: poor photostability
CCN1c2cc3c(cc2C(CS(=O)(=O)[O-])=CC1(C)C)C(c1nccn1CCCCCC(=O)ON1C(=O)CCC1=O)=c1cc2c(cc1O3)=[N+](CCCS(=O)(=O)O)C(C)(C)C=C2CS(=O)(=O)O [compound 10]	622 nm	649 nm	
CC1CC(C)(C)Nc2c1cc1c(c2S(=O)(=O)O)Oc2c(S(=O)(=O)O)c3c(cc2=C1c1nccn1CCCCCC(=O)ON1C(=O)CCC1=O)C(C)CC(C)(C)N=3 (centres unmarked) [Compound No. 2]	559 nm	579 nm	
CCN1c2cc3c(cc2C(C)=CC1(C)C)C(c1nc2ccccc2n1C)=c1cc2c(cc1O3)=[N+](CC)C(C)(C)C=C2C.[Cl-] [Compound No. 70]			Absorption Wavelengths [3]: 628 nm; Emission Wavelengths [3]: 656 nm
CCN1c2cc3c(cc2C(C)=CC1(C)C)C(c1nccn1C)=c1cc2c(cc1O3)=[N+](CC)C(C)(C)C=C2C [Compound No. 16]			Absorption Wavelengths [3]: 622 nm; Emission Wavelengths [3]: 648 nm; membrane potential dependence of mitochondrial staining [6]: stains mitochondria in a membrane potential-dependent fashion; also recorded: sensitive to disruption of the mitochondrial membrane potential; localization of dye in live cells [4]: concentrated in the mitochondria
CCN1c2cc3c(cc2C(CS(=O)(=O)[O-])=CC1(C)C)C(c1nccn1CCCCCC(=O)ON1C(=O)CCC1=O)=c1cc2c(cc1O3)=[N+](CC)C(C)(C)C=C2CS(=O)(=O)O [Compound No. 5]	622 nm	649 nm	
CC1(C)C=C(CS(=O)(=O)[O-])c2cc3c(c4c2N1CCC4)Oc1c2c4c(cc1=C3c1n(CCCCCC(=O)ON3C(=O)CCC3=O)cc[n+]1CCCS(=O)(=O)O)C(CS(=O)(=O)[O-])=CC(C)(C)[N+]=4CCC2 [Compound No. 75]	680 nm	701 nm	
CC1(C)C=C(CS(=O)(=O)[O-])c2cc3c(c4c2N1CCC4)Oc1c2c4c(cc1=C3c1nccn1CCCCCC(=O)ON1C(=O)CCC1=O)C(CS(=O)(=O)O)=CC(C)(C)[N+]=4CCC2 [Compound No. 7]	638 nm	660 nm	
CC1CC(C)(C)Nc2c1cc1c(c2S(=O)(=O)O)Oc2c(S(=O)(=O)O)c3c(cc2=C1c1[nH]cnc1C(=O)O)C(C)CC(C)(C)N=3 (centres unmarked) [Compound No. 3]	529 nm	548 nm	
CC1CC(C)(C)Nc2c1cc1c(c2S(=O)(=O)[O-])Oc2c(S(=O)(=O)O)c3c(cc2=C1c1n(CCCCCC(=O)ON2C(=O)CCC2=O)cc[n+]1C)C(C)CC(C)(C)N=3 (centres unmarked) [Compound No. 29]	592 nm	615 nm	
CCN1c2cc3c(cc2C(CS(=O)(=O)O)=CC1(C)C)C(c1nccn1CCCCCC(=O)NCCOCCOCCOCCOCCOCCOCCOCCOCCOCCOCCOCCOC(=O)ON1C(=O)CCC1=O)=c1cc2c(cc1O3)=[N+](CC)C(C)(C)C=C2CS(=O)(=O)[O-] [Compound No. 6]	622 nm	649 nm	absorption peak ([2]; FIG. 1: conjugated to goat anti-mouse IgG in PBS): about 633 nm; photostability [5]: significantly more photostable than DyLight 633; also recorded: approximately similar stability to that of Alexa Fluor 633; also recorded: very photostable

Continued, in another order:

Absorption Wavelengths [2]	Emission Wavelengths [2]	Molecule	other results
533 nm	550 nm	O=C(O)CCCCCn1ccnc1-c1c2cc/c(=N/CC(F)(F)F)cc-2oc2cc(NCC(F)(F)F)ccc12 [compound 84]	
647 nm	676 nm	CCN1c2cc3c(cc2C(C)=CC1(C)C)C(c1cocn1)=c1cc2c(cc1O3)=[N+](CC)C(C)(C)C=C2C [compound 87]	
660 nm	681 nm	CCN1c2cc3c(cc2C(CS(=O)(=O)[O-])=CC1(C)C)C(c1n(CC(=O)N2CCC(C(=O)ON4C(=O)CCC4=O)CC2)cc[n+]1CCCS(=O)(=O)O)=c1cc2c(cc1O3)=[N+](CC)C(C)(C)C=C2CS(=O)(=O)[O-] [compound 72]	
578 nm⁻¹		C/N=c1\cc2oc3cc(NC)c(S(=O)(=O)O)cc3c(-c3nccn3CCCCCC(=O)O)c-2cc1S(=O)(=O)O [compound 77]	
642 nm	662 nm	CC1(C)C=C(CS(=O)(=O)O)c2cc3c(cc2=N1)Oc1cc2c(cc1C=3c1n(CCCCCC(=O)ON3C(=O)CCC3=O)cc[n+]1CCCS(=O)(=O)O)C(CS(=O)(=O)[O-])=CC(C)(C)N2 [compound 71]	
627 nm	698 nm	CCN1c2cc3c(cc2C(C)=CC1(C)C)C(c1nccs1)=c1cc2c(cc1O3)=[N+](CC)C(C)(C)C=C2C [compound 85]	
599 nm	~620 nm	CCN1c2cc3c(cc2C(C)=CC1(C)C)C(c1ccncc1C(=O)[O-])=c1cc2c(cc1O3)=[N+](CCCCCC(=O)O)C(C)(C)C=C2C [compound 23]	
593 nm	614 nm	CC1CC(C)(C)Nc2c1cc1c(c2S(=O)(=O)[O-])Oc2c(S(=O)(=O)O)c3c(cc2=C1c1n(CCCCCC(=O)ON2C(=O)CCC2=O)cc[n+]1CCCS(=O)(=O)O)C(C)CC(C)(C)N=3 (centres unmarked) [compound 76]	
